Structures are written as SMILES.

Test [1] has as its system MDA-MB-453. Put plainly: drug sensitivity score (DSS), single agent (DSS (weighted AUC score)); higher = more sensitive (stronger viability decrease); extreme values may be limits of the assay. Conditions: BLU9931 0 nM; 72 h. In short, it runs like this: (§1)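 Drug sensitivity scores come from a weighted area under a four-parameter logistic fit to percent viability, normalised per plate to control wells. Viability was based on cellular ATP read with CellTiterGlo 2.0 after 72 h at 37 °C, 5% CO2. Each 384-well plate carried FIMM Oncology set compounds in singlicate at five 10-fold dilutions, with 2000 MDA-MB-453 cells per well in medium with or without an FGFR4 inhibitor at 100 nM final.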

Test [2] relates to MDA-MB-453. The experiment in a line: drug sensitivity score (DSS), in combination with BLU9931 (DSS (weighted AUC score)); higher = more sensitive (stronger viability decrease); extreme values may be limits of the assay. The following applies: BLU9931 100 nM; 72 h. Put shortly: as §1

As to `CO[C@H](C(=O)[C@@H](O)[C@@H](C)O)[C@@H]1Cc2cc3cc(O[C@H]4C[C@@H](O[C@@H]5C[C@@H](O)[C@H](O)[C@@H](C)O5)[C@H](O)[C@@H](C)O4)c(C)c(O)c3c(O)c2C(=O)[C@H]1O[C@H]1C[C@@H](O[C@@H]2C[C@@H](O)[C@@H](O[C@@H]3C[C@](C)(O)[C@H](O)[C@@H](C)O3)[C@@H](C)O2)[C@H](O)[C@@H](C)O1` [Plicamycin], the drug sensitivity score with MDA-MB-453 [1] and in the test with MDA-MB-453 [2] was 15.7 throughout.

Consider `Nc1cccc2c1C(=O)N(C1CCC(=O)NC1=O)C2=O` (stereo not given) [Pomalidomide], for which the drug sensitivity score in the test on MDA-MB-453 [1] and in the test on MDA-MB-453 [2] was 0 each time.

As for `Cc1ccc(C(=O)Nc2ccc(CN3CCN(C)CC3)c(C(F)(F)F)c2)cc1C#Cc1cnc2cccnn12` [Ponatinib], the drug sensitivity score in the test with MDA-MB-453 [1] was determined as 5.9; in the test on MDA-MB-453 [2], 1.7.

Turning to `C=CC(=O)N1CCC(Oc2cc3c(Nc4ccc(Cl)c(Cl)c4F)ncnc3cc2OC)CC1` [Poziotinib], the results for the drug sensitivity score in the test on MDA-MB-453 [1] and with MDA-MB-453 [2] were 19.1 and 25.1, respectively.

Turning to `CCCCc1nc2cc(/C=C/C(=O)NO)ccc2n1CCN(CC)CC` [Pracinostat], the figures for the drug sensitivity score in the test with MDA-MB-453 [1] and in the test with MDA-MB-453 [2] were 22.3 and 19.8, respectively.

With `CC[C@H](C)C(=O)O[C@H]1C[C@H](O)C=C2C=C[C@H](C)[C@H](CC[C@@H](O)C[C@@H](O)CC(=O)O)[C@H]21` [Pravastatin], the drug sensitivity score in the test with MDA-MB-453 [1] was 0; in the test with MDA-MB-453 [2], 0.3.

With `C[C@]12C=CC(=O)C=C1CC[C@@H]1[C@@H]2[C@@H](O)C[C@@]2(C)[C@H]1CC[C@]2(O)C(=O)CO` [Prednisolone], the values for the drug sensitivity score in the test on MDA-MB-453 [1] and in the test on MDA-MB-453 [2] were 8.2 and 0, respectively.

On to `COc1cccc(OCCCN)c1-c1cc(Nc2cnc(C#N)cn2)n[nH]1` [Prexasertib], for which the drug sensitivity score with MDA-MB-453 [1] turned out to be 28; in the test on MDA-MB-453 [2] it was 23.6.

As to `Cn1cc(CNCC2CCN(c3ncc(C(=O)NO)cn3)CC2)c2ccccc21` [Quisinostat], the drug sensitivity score with MDA-MB-453 [1] worked out at 22.4; in the test on MDA-MB-453 [2], 21.3.

On to `CC(C)(C)c1cc(NC(=O)Nc2ccc(-c3cn4c(n3)sc3cc(OCCN5CCOCC5)ccc34)cc2)no1` [Quizartinib], for which the drug sensitivity score with MDA-MB-453 [1] came to 1; in the test on MDA-MB-453 [2] it was 0.4.

For `Nc1cc(F)ccc1NC(=O)/C=C/c1cnn(C/C=C/c2ccccc2)c1` [RGFP966], the drug sensitivity score in the test on MDA-MB-453 [1] was 2.6; with MDA-MB-453 [2] it was 2.9.

For the compound `COC(=O)c1ccc([C@H]2c3[nH]c4ccccc4c3C[C@H](C(=O)OC)N2C(=O)CCl)cc1` [RSL3], the results for the drug sensitivity score with MDA-MB-453 [1] and in the test on MDA-MB-453 [2] were 0.6 and 0.8, respectively.

Consider `Cc1cnc(NC(=O)Nc2cc(Br)c(C)cc2OC[C@@H]2CNCCO2)cn1` [Rabusertib], for which the drug sensitivity score in the test on MDA-MB-453 [1] came out at 1.2; in the test with MDA-MB-453 [2], 0.9.

Turning to `Cc1cn(-c2cc(NC(=O)c3ccc(C)c(Nc4nccc(-c5cnccn5)n4)c3)cc(C(F)(F)F)c2)cn1` [Radotinib], the results for the drug sensitivity score in the test with MDA-MB-453 [1] and with MDA-MB-453 [2] were 0 and 2.4, respectively.

As to `CC(C)(C)Cn1c(N)nc2ccc(-c3[nH]c(C(C)(C)C)nc3-c3ccc(F)cc3)nc21` [Ralimetinib], the results for the drug sensitivity score in the test on MDA-MB-453 [1] and in the test on MDA-MB-453 [2] were 1.8 and 0.8, respectively.

For the compound `O=C(c1ccc(OCCN2CCCCC2)cc1)c1c(-c2ccc(O)cc2)sc2cc(O)ccc12` [Raloxifene], the drug sensitivity score came to 2.4 in the test on MDA-MB-453 [1] and 2.5 in the test with MDA-MB-453 [2].

Turning to `Cc1nc(=O)c2cc(CN(C)c3ccc(C(=O)N[C@@H](CCC(=O)O)C(=O)O)s3)ccc2[nH]1` [Raltitrexed], the drug sensitivity score worked out at 5.3 with MDA-MB-453 [1] and 3.2 with MDA-MB-453 [2].

As for `Cn1nccc1Nc1nccc(-c2ccn([C@H](CO)c3ccc(Cl)c(F)c3)c(=O)c2)n1` [Ravoxertinib], the results for the drug sensitivity score with MDA-MB-453 [1] and in the test on MDA-MB-453 [2] were 6.9 and 5.6, respectively.

Regarding `CNC(=O)c1cc(Oc2ccc(NC(=O)Nc3ccc(Cl)c(C(F)(F)F)c3)c(F)c2)ccn1` [Regorafenib], the drug sensitivity score in the test with MDA-MB-453 [1] is 3; in the test with MDA-MB-453 [2], 1.5.

`CCOC(=O)C1=CCCC[C@H]1S(=O)(=O)Nc1ccc(F)cc1Cl` [Resatorvid]: the drug sensitivity score in the test with MDA-MB-453 [1] and in the test with MDA-MB-453 [2] was 0 each time.

For the compound `CCOCc1nc2c(N)nc3ccccc3c2n1CC(C)(C)O` [Resiquimod], the drug sensitivity score was 0.9 in the test on MDA-MB-453 [1] and 0 in the test with MDA-MB-453 [2].

For `CN(C)Cc1ccc(S(=O)(=O)n2ccc(/C=C/C(=O)NO)c2)cc1` [Resminostat], the drug sensitivity score was 16 in the test on MDA-MB-453 [1] and 16.2 with MDA-MB-453 [2].

Take `CN(C)C(=O)c1cc2cnc(Nc3ccc(N4CCNCC4)cn3)nc2n1C1CCCC1` [Ribociclib]: the figures for the drug sensitivity score with MDA-MB-453 [1] and in the test with MDA-MB-453 [2] were 1.4 and 3.6, respectively.

On to `CO[C@H]1C[C@@H]2CC[C@@H](C)[C@@](O)(O2)C(=O)C(=O)N2CCCC[C@H]2C(=O)O[C@H]([C@H](C)C[C@@H]2CC[C@@H](OP(C)(C)=O)[C@H](OC)C2)CC(=O)[C@H](C)/C=C(\C)[C@@H](O)[C@@H](OC)C(=O)[C@H](C)C[C@H](C)/C=C/C=C/C=C/1C` [Ridaforolimus], for which the drug sensitivity score with MDA-MB-453 [1] worked out at 9.5; in the test with MDA-MB-453 [2] it was 14.7.

For the compound `COc1cc(OC)c(/C=C/S(=O)(=O)Cc2ccc(OC)c(NCC(=O)O)c2)c(OC)c1` [Rigosertib], the drug sensitivity score was determined as 17.6 in the test with MDA-MB-453 [1] and 16.2 with MDA-MB-453 [2].

Consider `C[C@H]1CNCCCN1S(=O)(=O)c1cccc2cncc(F)c12` [Ripasudil], for which the drug sensitivity score in the test on MDA-MB-453 [1] amounted to 0; in the test with MDA-MB-453 [2], 0.1.

With `C=CC(=O)Nc1cccc(Nc2nc(Nc3ccc(N4CCN(C(C)=O)CC4)cc3OC)ncc2C(F)(F)F)c1` [Rociletinib], the drug sensitivity score came out at 7.8 in the test with MDA-MB-453 [1] and 7.9 with MDA-MB-453 [2].

Regarding `O=C(CCCCCCNC(=O)c1cnc(N(c2ccccc2)c2ccccc2)nc1)NO` [Rocilinostat], the drug sensitivity score with MDA-MB-453 [1] was found to be 9.2; with MDA-MB-453 [2], 9.8.

As to `C/C=C1\NC(=O)[C@H]2CSSCC/C=C/[C@H](CC(=O)N[C@H](C(C)C)C(=O)N2)OC(=O)[C@H](C(C)C)NC1=O` [Romidepsin], the figures for the drug sensitivity score in the test on MDA-MB-453 [1] and in the test on MDA-MB-453 [2] were 32 and 33.3, respectively.

Turning to `Cc1nc(C(=O)NCC(=O)O)c(O)c2ccc(Oc3ccccc3)cc12` [Roxadustat], the drug sensitivity score in the test with MDA-MB-453 [1] and with MDA-MB-453 [2] was 0 in each case.

In the case of `CN(C)C[C@@H]1CCn2cc(c3ccccc32)C2=C(C(=O)NC2=O)c2cn(c3ccccc23)CCO1` [Ruboxistaurin], the drug sensitivity score in the test on MDA-MB-453 [1] came to 5.3; with MDA-MB-453 [2] it was 6.7.

Take `CNCc1ccc(-c2[nH]c3cc(F)cc4c3c2CCNC4=O)cc1` [Rucaparib]: the values for the drug sensitivity score with MDA-MB-453 [1] and in the test on MDA-MB-453 [2] were 0.6 and 0, respectively.

Consider `N#CC[C@H](C1CCCC1)n1cc(-c2ncnc3[nH]ccc23)cn1` [Ruxolitinib], for which the drug sensitivity score in the test on MDA-MB-453 [1] came to 1.2; in the test with MDA-MB-453 [2], 0.

As for `CC(C)N(CCCNC(=O)Nc1ccc(C(C)(C)C)cc1)C[C@H]1O[C@@H](n2cc(Br)c3c(N)ncnc32)[C@H](O)[C@@H]1O` [SGC0946], the drug sensitivity score came out at 0.9 with MDA-MB-453 [1] and 0.1 in the test with MDA-MB-453 [2].

In the case of `COc1ccc(CCc2nc3cc(-c4c(C)noc4C)ccc3n2C[C@H](C)N2CCOCC2)cc1Cl` [SGC-CBP30], the drug sensitivity score with MDA-MB-453 [1] was 9; in the test on MDA-MB-453 [2], 9.1.

Consider `CN1CCC(CNc2ccc3ncc(-c4cccc(OC(F)(F)F)c4)n3n2)CC1` [SGI-1776], for which the drug sensitivity score in the test with MDA-MB-453 [1] was 6.6; with MDA-MB-453 [2], 5.8.

Regarding `CN(CC(=O)N(Cc1ccc(C2CCCCC2)cc1)c1ccc(C(=O)O)cc1)S(=O)(=O)c1c(F)c(F)c(F)c(F)c1F` [SH-4-54], the values for the drug sensitivity score in the test on MDA-MB-453 [1] and in the test with MDA-MB-453 [2] were 5.4 and 7.4, respectively.

As for `CCc1c2c(nc3ccc(O)cc13)-c1cc3c(c(=O)n1C2)COC(=O)[C@]3(O)CC` [SN-38], the results for the drug sensitivity score in the test with MDA-MB-453 [1] and in the test on MDA-MB-453 [2] were 28.8 and 26.2, respectively.

As for `CC(C)(C)c1cnc(CSc2cnc(NC(=O)C3CCNCC3)s2)o1` [SNS-032], the results for the drug sensitivity score in the test with MDA-MB-453 [1] and with MDA-MB-453 [2] were 18.1 and 19.1, respectively.

`Cc1cc2c(C(=O)NC[C@H](C)c3ccccc3)c(O)c(O)cc2c(O)c1-c1c(C)cc2c(C(=O)NC[C@H](C)c3ccccc3)c(O)c(O)cc2c1O` [Sabutoclax]: the drug sensitivity score stood at 12.6 in the test on MDA-MB-453 [1] and 12.4 with MDA-MB-453 [2].

As for `CC[C@@H](C(=O)[C@@H](C)[C@@H](O)[C@H](C)[C@@H]1O[C@@H]([C@@H](CC)C(=O)O)CC[C@@H]1C)[C@H]1O[C@]2(C=C[C@@H](O)[C@]3(CC[C@@](C)([C@H]4CC[C@](O)(CC)[C@H](C)O4)O3)O2)[C@H](C)C[C@@H]1C` [Salinomycin], the drug sensitivity score in the test with MDA-MB-453 [1] is 6.8; with MDA-MB-453 [2], 3.2.

As to `CC(C)n1nc(-c2ccc3oc(N)nc3c2)c2c(N)ncnc21` [Sapanisertib], the drug sensitivity score worked out at 17.1 in the test on MDA-MB-453 [1] and 17.9 in the test with MDA-MB-453 [2].

For the compound `CNC(=O)CN1CCC(Oc2cc3c(Nc4cccc(Cl)c4F)ncnc3cc2OC)CC1` [Sapitinib], the values for the drug sensitivity score in the test with MDA-MB-453 [1] and in the test on MDA-MB-453 [2] were 2.2 and 4.8, respectively.

`CN1CCN(CCOc2cc(OC3CCOCC3)c3c(Nc4c(Cl)ccc5c4OCO5)ncnc3c2)CC1` [Saracatinib]: the drug sensitivity score with MDA-MB-453 [1] was found to be 1.5; in the test with MDA-MB-453 [2], 3.6.

`CC1=C2C[C@H]3[C@@H](CC[C@@H]4C[C@H](NS(C)(=O)=O)CC[C@@]43C)[C@@H]2CC[C@@]2(C1)O[C@@H]1C[C@H](C)CN[C@H]1[C@H]2C` [Saridegib]: the drug sensitivity score in the test on MDA-MB-453 [1] and in the test on MDA-MB-453 [2] was 0 each time.

(Values after the supplement of paper PMC7224384.)
